# Earlier results as cited in PubChem BioAssay AID1259409 (Chemical Carcinogenesis Research Information System (CCRIS), 2018).
# Test system: rodent chemically induced tumor inhibition, incidence and multiplicity
# Experiment: CCRIS tumor inhibitor studies
structure (smiles),measurement,setting,value
CC1=C(/C=C/C(C)=C/C=C/C(C)=C/C(=O)Nc2ccc(O)cc2)C(C)(C)CCC1,"tumour outcome (control, treated, inhibition, significance)","Carcinogen: N-METHYL-N-NITROSOUREA, 684-93-5, Dose [Inhibitor]: 2 MMOL/KG DIET DAILY STARTING 12 D AFTER CARCINOGEN TREATMENT THROUGH ABOUT 8 MO AFTER CARCINOGEN DOSE (STUDY DURATION:, Route [Inhibitor]: ORAL, Species: RAT, Strain/Sex: F344/MALE, Target Tissue: Type of Lesion: COLON: ADENOMA, Dose [Carcinogen]: 2.5 MG 1/WK FOR 2 WK, Promoter: NONE USED","16/39 (41%), 11/30 (37%), 10%, not significant"
same,"tumour outcome (control, treated, inhibition, significance)","Carcinogen: N-METHYL-N-NITROSOUREA, 684-93-5, Dose [Inhibitor]: 587 MG/KG DIET FROM D 7-20 AFTER CARCINOGEN ADMINISTRATION THEN REDUCED TO 391 MG/KG DIET FOR REMAINDER OF STUDY (STUDY, Route [Inhibitor]: ORAL, Species: RAT, Strain/Sex: SPRAGUE-DAWLEY/FEMALE, Target Tissue: Type of Lesion: MAMMARY GLAND: ADENOCARCINOMA, Dose [Carcinogen]: 20 MG/KG BW ONCE, Promoter: NONE USED","64%, 50%, 22%, not significant"
same,"tumour outcome (control, treated, inhibition, significance)","Carcinogen: N-METHYL-N-NITROSOUREA, 684-93-5, Dose [Inhibitor]: 587 MG/KG IN DIET FROM D 7-20 AFTER CARCINOGEN DOSE THEN REDUCED TO 391 MG/KG IN DIET FOR REMAINDER OF STUDY (STUDY DURA, Route [Inhibitor]: ORAL, Species: RAT, Strain/Sex: SPRAGUE-DAWLEY/FEMALE, Target Tissue: Type of Lesion: MAMMARY GLAND: ADENOCARCINOMA, Dose [Carcinogen]: 20 MG/KG BW ONCE, Promoter: NONE USED","64%, 50%, 22%, not significant"
same,"tumour outcome (control, treated, inhibition, significance)","Carcinogen: N-METHYL-N-NITROSOUREA, 684-93-5, Dose [Inhibitor]: O.O3 MMOL 3/WK STARTING 12 D THROUGH ABOUT 8 MO AFTER FIRST CARCINOGEN DOSE (STUDY DURATION: APPROXIMATELY 8 MO), Route [Inhibitor]: INTRARECTAL, Species: RAT, Strain/Sex: F344/MALE, Target Tissue: Type of Lesion: COLON: ADENOCARCINOMA, Dose [Carcinogen]: 2.5 MG 1/WK FOR 2 WK, Promoter: NONE USED","3/39 (8%), 6/39 (15%), -88%, not significant"
same,"tumour outcome (control, treated, inhibition, significance)","Carcinogen: N-METHYL-N-NITROSOUREA, 684-93-5, Dose [Inhibitor]: O.O3 MMOL 3/WK STARTING 12 D THROUGH ABOUT 8 MO AFTER FIRST CARCINOGEN DOSE (STUDY DURATION: APPROXIMATELY 8 MO), Route [Inhibitor]: INTRARECTAL, Species: RAT, Strain/Sex: F344/MALE, Target Tissue: Type of Lesion: COLON: ADENOMA, Dose [Carcinogen]: 2.5 MG 1/WK FOR 2 WK, Promoter: NONE USED","11/39 (28%), 23/39 (59%), -111%, p<0.05"
same,"tumour outcome (control, treated, inhibition, significance)","Carcinogen: N-METHYL-N-NITROSOUREA, 684-93-5, Dose [Inhibitor]: O.O3 MMOL 3/WK STARTING 15 D PRIOR TO THROUGH ABOUT 8 MO AFTER FIRST CARCINOGEN DOSE (STUDY DURATION: APPROXIMATELY 8 MO, Route [Inhibitor]: INTRARECTAL, Species: RAT, Strain/Sex: F344/MALE, Target Tissue: Type of Lesion: COLON: ADENOCARCINOMA, Dose [Carcinogen]: 2.5 MG 1/WK FOR 2 WK, Promoter: NONE USED","3/39 (8%), 5/39 (13%), -63%, not significant"
same,"tumour outcome (control, treated, inhibition, significance)","Carcinogen: N-METHYL-N-NITROSOUREA, 684-93-5, Dose [Inhibitor]: O.O3 MMOL 3/WK STARTING 15 D PRIOR TO THROUGH ABOUT 8 MO AFTER FIRST CARCINOGEN DOSE (STUDY DURATION: APPROXIMATELY 8 MO, Route [Inhibitor]: INTRARECTAL, Species: RAT, Strain/Sex: F344/MALE, Target Tissue: Type of Lesion: COLON: ADENOMA, Dose [Carcinogen]: 2.5 MG 1/WK FOR 2 WK, Promoter: NONE USED","11/39 (28%), 14/39 (36%), -29%, not significant"
same,"tumour outcome (control, treated, inhibition, significance)","Carcinogen: N-METHYL-N-NITROSUREA, 684-93-5, Dose [Inhibitor]: 0, 782 MG/KG OF CASEIN BASED AIN-76A DIET FOR DURATION OF STUDY BEGINNING 7 D PRIOR TO CARCINOGEN DOSE (STUDY DURATION:, Route [Inhibitor]: ORAL, Species: RAT, Strain/Sex: F344/FEMALE, Target Tissue: Type of Lesion: MAMMARY GLAND: TUMOR, Dose [Carcinogen]: 45 MG/KG BW ONCE AT 50 D OF AGE, Promoter: NONE USED","18/25 (72%), 21/25 (84%), -17%, not significant"
same,"tumour outcome (control, treated, inhibition, significance)","Carcinogen: N-NITROSOBIS(2-OXOPROPLYL)AMINE [60599-38-4], DL-ETHIONINE [67-21-0], L-METHIONINE [63-68-3], Carcinogen: N-NITROSOBIS(2-OXOPROPLYL)AMINE [60599-38-4], DL-ETHIONINE [67-21-0], L-METHIONINE [63-68-3], Dose [Inhibitor]: 0, 0.0015% IN DIET FOR 55 D BEGINNING ON DAY 50, 1 WK POST LAST CARCINOGEN DOSE (STUDY DURATION: 105 D), Route [Inhibitor]: ORAL, Species: HAMSTER, Target Tissue: Type of Lesion: LIVER: INTRAHEPATIC CHOLANGIOCARCINOMA, Dose [Carcinogen]: 50 MG/KG BOP ONCE ON DAY 0, THEN 20 MG/KG TWICE ON DAYS 18 AND 32, 500 MG/KG DL-ETHIONINE 1X/D FOR 4 D BEGINNING ON DAY, Dose [Carcinogen]: 50 MG/KG BOP ONCE ON DAY 0, THEN 20 MG/KG TWICE ON DAYS 18 AND 32, 500 MG/KG DL-ETHIONINE 1X/D FOR 4 D BEGINNING ON DAY, Promoter: CHOLINE-DEFICIENT DIET","7/17 (41%), 8/16 (50%), -22%, not significant"
same,"tumour outcome (control, treated, inhibition, significance)","Carcinogen: N-NITROSOBIS(2-OXOPROPLYL)AMINE [60599-38-4], DL-ETHIONINE [67-21-0], L-METHIONINE [63-68-3], Carcinogen: N-NITROSOBIS(2-OXOPROPLYL)AMINE [60599-38-4], DL-ETHIONINE [67-21-0], L-METHIONINE [63-68-3], Dose [Inhibitor]: 0, 0.0015% IN DIET FOR 55 D BEGINNING ON DAY 50, 1 WK POST LAST CARCINOGEN DOSE (STUDY DURATION: 105 D), Route [Inhibitor]: ORAL, Species: HAMSTER, Target Tissue: Type of Lesion: PANCREATIC DUCT, CARCINOMA, Dose [Carcinogen]: 50 MG/KG BOP ONCE ON DAY 0, THEN 20 MG/KG TWICE ON DAYS 18 AND 32, 500 MG/KG DL-ETHIONINE 1X/D FOR 4 D BEGINNING ON DAY, Dose [Carcinogen]: 50 MG/KG BOP ONCE ON DAY 0, THEN 20 MG/KG TWICE ON DAYS 18 AND 32, 500 MG/KG DL-ETHIONINE 1X/D FOR 4 D BEGINNING ON DAY, Promoter: CHOLINE-DEFICIENT DIET","17/17 (100%), 15/16 (94%), 6%, not significant"
same,"tumour outcome (control, treated, inhibition, significance)","Carcinogen: N-NITROSOBIS(2-OXOPROPLYL)AMINE [60599-38-4], DL-ETHIONINE [67-21-0], L-METHIONINE [63-68-3], Carcinogen: N-NITROSOBIS(2-OXOPROPLYL)AMINE [60599-38-4], DL-ETHIONINE [67-21-0], L-METHIONINE [63-68-3], Dose [Inhibitor]: 0, 0.004% IN DIET FOR 55 D BEGINNING ON DAY 50, 1 WK POST LAST CARCINOGEN DOSE (STUDY DURATION: 105 D), Route [Inhibitor]: ORAL, Species: HAMSTER, Target Tissue: Type of Lesion: LIVER: INTRAHEPATIC CHOLANGIOCARCINOMA, Dose [Carcinogen]: 50 MG/KG BOP ONCE ON DAY 0, THEN 20 MG/KG TWICE ON DAYS 18 AND 32, 500 MG/KG DL-ETHIONINE 1X/D FOR 4 D BEGINNING ON DAY, Dose [Carcinogen]: 50 MG/KG BOP ONCE ON DAY 0, THEN 20 MG/KG TWICE ON DAYS 18 AND 32, 500 MG/KG DL-ETHIONINE 1X/D FOR 4 D BEGINNING ON DAY, Promoter: CHOLINE-DEFICIENT DIET","7/17 (41%), 13/19 (68%), -68%, not significant"
same,"tumour outcome (control, treated, inhibition, significance)","Carcinogen: N-NITROSOBIS(2-OXOPROPLYL)AMINE [60599-38-4], DL-ETHIONINE [67-21-0], L-METHIONINE [63-68-3], Carcinogen: N-NITROSOBIS(2-OXOPROPLYL)AMINE [60599-38-4], DL-ETHIONINE [67-21-0], L-METHIONINE [63-68-3], Dose [Inhibitor]: 0, 0.004% IN DIET FOR 55 D BEGINNING ON DAY 50, 1 WK POST LAST CARCINOGEN DOSE (STUDY DURATION: 105 D), Route [Inhibitor]: ORAL, Species: HAMSTER, Target Tissue: Type of Lesion: PANCREATIC DUCT, CARCINOMA, Dose [Carcinogen]: 50 MG/KG BOP ONCE ON DAY 0, THEN 20 MG/KG TWICE ON DAYS 18 AND 32, 500 MG/KG DL-ETHIONINE 1X/D FOR 4 D BEGINNING ON DAY, Dose [Carcinogen]: 50 MG/KG BOP ONCE ON DAY 0, THEN 20 MG/KG TWICE ON DAYS 18 AND 32, 500 MG/KG DL-ETHIONINE 1X/D FOR 4 D BEGINNING ON DAY, Promoter: CHOLINE-DEFICIENT DIET","17/17 (100%), 19/19 (100%), 0%, not significant"
same,"tumour outcome (control, treated, inhibition, significance)","Carcinogen: N-NITROSOBIS(2-OXOPROPLYL)AMINE [60599-38-4], DL-ETHIONINE [67-21-0], L-METHIONINE [63-68-3], Carcinogen: N-NITROSOBIS(2-OXOPROPLYL)AMINE [60599-38-4], DL-ETHIONINE [67-21-0], L-METHIONINE [63-68-3], Dose [Inhibitor]: 0, 0.01% IN DIET FOR 55 D BEGINNING ON DAY 50, 1 WK POST LAST CARCINOGEN DOSE (STUDY DURATION: 105 D), Route [Inhibitor]: ORAL, Species: HAMSTER, Target Tissue: Type of Lesion: LIVER: INTRAHEPATIC CHOLANGIOCARCINOMA, Dose [Carcinogen]: 50 MG/KG BOP ONCE ON DAY 0, THEN 20 MG/KG TWICE ON DAYS 18 AND 32, 500 MG/KG DL-ETHIONINE 1X/D FOR 4 D BEGINNING ON DAY, Dose [Carcinogen]: 50 MG/KG BOP ONCE ON DAY 0, THEN 20 MG/KG TWICE ON DAYS 18 AND 32, 500 MG/KG DL-ETHIONINE 1X/D FOR 4 D BEGINNING ON DAY, Promoter: CHOLINE-DEFICIENT DIET","7/17 (41%), 14/17 (82%), -100%, p<0.05"
